This note sets out measurements from PMC11729362, “Icariside II Preparation from Icariin Separated from Epimedium Herbal Extract Powder by a Special Icariin Glycosidase” (Journal of Microbiology and Biotechnology, 2024).

The subject of the assay is T1, special icariin glycosidase.
T1 construct: gene icariin 7-O-glucosidase; native enzyme purified from culture supernatant (methanol precipitation, DEAE-cellulose DE-52); about 75 kDa by SDS-PAGE
The experiment in a line: Lineweaver-Burk; HPLC and TLC of products and substrate. It is filed as biochemical, Aspergillus sp. y48. The following applies: 45 °C, 9 h reaction, 0.4-2.0 mmol/L icariin; purified free enzyme.

`COc1ccc(-c2oc3c(CC=C(C)C)c(O[C@@H]4O[C@H](CO)[C@@H](O)[C@H](O)[C@H]4O)cc(O)c3c(=O)c2O[C@@H]2O[C@@H](C)[C@H](O)[C@@H](O)[C@H]2O)cc1` [icariin]: the Michaelis-Menten constant (Km) (commonly the substrate concentration at which the rate is half of its maximum) came to 3.55 mM.
